According to patent US20030086972A1, “Hydrogel-driven drug dosage form” (priority 2000, published 2003):
Converted amounts (≈) assume the structure as drawn. Where a name gives a salt, the structure may show the parent alone. Read-outs that look alike come from different tables or passages of the source. Each block holds one molecule with its values, some of them ahead of it.

Columns and labels:
[1] = Aqueous solubility of the drug
[2] = cited from earlier work

Molecule: 4-[3-[4-(2-methylimidazol-1 -yl) phenylthio]phenyl]-3,4,5,6-tetrahydro-2H-pyran-4-carboxamide hemifumarate [Drug 3]
solubility ([1]; pH 4): 3.7 mgA/mL

solubility ([1]; aqueous, pH 7, aqueous buffer): 0.2 mg/mL
Molecule: CN[C@H]1CC[C@@H](c2ccc(Cl)c(Cl)c2)c2ccccc21 [Drug 2, sertraline HCl]

solubility ([1]; aqueous, pH 7.6, aqueous buffer): 0.4 mg/mL (≈ 785 µM)
Molecule: COc1cc2nc(N3CCCN(C(=O)N4CCOCC4)CC3)cc(N)c2c(-c2ccc(F)cc2)c1OC [Drug 5, 4-amino-5-(4-fluorophenyl)-6,7-dimethoxy-2-[4-(morpholinocarbonyl)perhydro-1,4-diazepin-1-yl]quinoline]

Molecule: CN[C@H]1CC[C@@H](c2ccc(Cl)c(Cl)c2)c2ccccc21 [sertraline]
solubility (in words) ([2]; low pH): moderate solubility
solubility (in words) ([2]; pH of about 7.5): extremely low solubility
solubility (in words) ([2]; pH values above 5): low solubility
